# From patent US20110077230A1, “COPPER ORGANOCOMPLEXES, USE THEREOF AS ANTITUMOR MEANS AND FOR PROTECTING HEALTHY TISSUE FROM IONIZING RADIATION” (CHARITE - UNIVERSITATSMEDIZIN BERLIN, priority 2008, published 2011)
# What was measured:
# thymocytes = assay: Cytosolic calcium (chlortetracycline fluorescence) in thymocytes; assay type: cell-based, rats of the Wistar line; conditions: depending on the dose
# Protocol: The Ehrlich ascites carcinoma (EAC) was obtained from white male mice of the strain MNR1 and the thymocytes from the thymus of rats of the Wistar line. Vitality of the cells was tested by vital staining using trypan blue and experiments and determined to be no less than 95% in all experiments. The NADH state in the EAC cells was assessed with reference to their fluorescence intensity. Measurement of the intracellular calcium concentration was performed according to the standard methodology of fluorescence using chlortetracycline. The membrane potential was measured using the fluorescent dye No. 1104. NADH is a source of electrons in the oxidative phosphorylation process. […] These effects are directed to inhibiting the NAD-dependent dehydrogenase. As a result, the respiratory chain in the tumor cells is inhibited.
# The concentration of intracellular calcium is a trigger for a number of intracellular processes (FIG. 17c, 17d).
# [1] = test system: human mammary gland tumor cells; assay: In vitro effect on human mammary gland tumor cells (trypan blue, photography); assay type: cell-based
# Protocol: From a patient with mammary carcinoma already showing signs of decay, postoperational material was collected and the tumor cells were separated therefrom. A suspension of these tumor cells was added with trypan blue dye and complex A. During the course of the test, three cells situated closely to each other (A, B and C) were documented by photography (FIGS. 22a, 22b and 22c). After incubating for 18 minutes, wrinkling of the membrane of cell A and invagination of the membrane of cell B can be recognized. After 28 minutes of incubation, cell fragments become stained with trypan blue, a sign that apoptosis has begun. After 43 minutes of incubation, membrane components and the contents thereof detach from the cells.
# [2] = test system: Hep-2 tumor cells of human laryngeal carcinoma; assay: Copper uptake by Hep-2 cells (EPR); assay type: cell-based
# Protocol: Complex A dissolved in Tween 80 was mixed with liposomes from lecithin. This mixture was added with a culture of Hep-2 cells, and the EPR spectra were recorded over time. A culture having no complex A preparation was measured for comparison. The EPR spectra allow quantitative determination of the copper content in the tumor cells. […] This corresponds to an intake of 10 copper-containing molecules in a cell. This saturation value of the cells is reached within 1.5 to 2 hours (FIG. 21). In addition, the cell suspension was purified by filtration, and the filtrate containing the cellular components was fractionated using a centrifuge.
substance,measurement,setting,value
Copper-sarcolysine hydrochloride complex [complex A],concentration of cytosolic calcium,thymocytes,increase
same,incubation time to wrinkling / invagination of the cell membrane,[1],18 min
same,incubation time until cell fragments stain with trypan blue (apoptosis has begun),[1],28 min
same,incubation time until membrane components and contents detach from the cells,[1],43 min
same,copper absorbed by Hep-2 cells,"[2]; complex A in Tween 80 with lecithin liposomes, saturation value",4.5×10^13 spin per gram
same,intake of copper-containing molecules in a cell,[2]; corresponds to the spin value,10 molecules in a cell
same,intracellular accumulation of the copper complex,"[2]; fractionated filtrate, EPR signal of copper",accumulated almost entirely in the nuclear chromatin
